In patent US10548912B2, “Dosage regimen for a tiacumicin compound” (Astellas Pharma Europe Ltd., priority 2015, dated 2020):
Where two headings read alike, the source gives them in different places.

How the values were obtained:
[1] = tested on: Clostridium difficile infection; experiment: Phase IIIb/IV randomized open-label EXTEND study (2819-MA-1002): extended fidaxomicin vs standard vancomycin; assay type: in vivo, human
Description: Fidaxomicin (FDX) is believed to reduce recurrence primarily through minimal collateral damage to colonic microflora. […] Subjects will receive 200 mg twice daily (b.i.d.) for 5 days from Day 1 to Day 5. From Day 6 to Day 25, subjects will receive 200 mg once daily on alternate days (first alternate day dose given on Day 7). This extension of the dose will allow a longer period for the protective microflora to recover and extend the period of time over which Clostridium difficile cells are suppressed, and kill any dormant spores that germinate. The extension of the dose also targets the early recurrence period documented in the phase 3 studies—the first 15 days after the end of therapy during which the majority of recurrences occurred. By covering this period this revised dosing regimen may reduce the recurrence to <10%, preferably to <5% and even more preferred to <3%. The impact on the gut microflora was limited supporting the rationale for this study.
The dosing of vancomycin (Vancocin™) to be administered in this study is in line with the SmPC for Vancocin. Subjects will receive 125 mg four times daily (q.i.d.) for 10 days from Day 1 to Day 10.
The dosage regimen was as described in Table 1 of Example 1.

[2] = tested on: Clostridium difficile (C. diff) toxins A and B; experiment: Detection of C. difficile toxins A and B in human faecal samples by ELISA (EXTEND samples); assay type: in vivo
Description: The detection of Clostridium difficile (C. diff) toxins A and B in human faecal samples was performed by ELISA. The samples to be analysed originated from clinical study 2819-MA-1002 (EXTEND).
The samples were sent to LGC (Analytical lab in Fordham, Cambridgeshire, UK) packed in dry ice and upon receipt stored in a freezer (nominally −80° C.). For each patient a stool sample was collected at Day 0 (screening) and also in case of disease recurrence or an unscheduled visit. For subjects participating in the Microbiome sub-study stool samples were collected at: Day 0 (screening), Day 5, Day 12, Day 27, Day 40, Day 55 and in the case of disease recurrence or an unscheduled visit. A total of 596 faecal samples were collected during the study.
C. difficile toxins A and B in human faecal samples were detected using TECHLAB C. difficile Tox A/B II ELISA kits (Product Number T5015).
The assay readout is the spectrophotometric dual wavelength optical density (OD) read at 450 nm and referenced at 620 nm and expressed in Absorbance Units (AU). All samples were measured in duplicate. The presence (+) or absence (−) of toxin was reported together with the mean OD.
The acceptability of each batch of test samples was dependent on the data from the QC samples fulfilling the acceptance criteria outlined below in Table 5, in that all positive QCs remain above the cut off value of >0.080 OD and negative QCs remain ≤0.080 OD. All batches contained 2 separate sets of QC samples which were measured in duplicate. The precision was calculated between the OD of replicates of each set using the coefficient of variation (CV) which should be <20%.

[3] = tested on: Clostridium difficile infection; conditions: Louie 2011; 200 mg Fidaxomicin twice daily or vancomycin 125 mg four times daily orally for 10 days; cited from earlier work
[4] = tested on: Clostridium difficile infection; conditions: Cornely 2012; 200 mg Fidaxomicin twice daily or vancomycin 125 mg four times daily orally for 10 days; cited from earlier work
CDI = conditions: Phase III studies, mITT analysis; cited from earlier work
[5] = tested on: Clostridium difficile infections (CDI); conditions: following a vancomycin taper; cited from earlier work
[6] = Day 55, extended fidaxomicin or standard vancomycin
[7] = Table 7, extended fidaxomicin regimen of Example 1 or standard vancomycin
[8] = extended fidaxomicin Day 55, standard vancomycin Day 40
[9] = Sub-study visit day 5, n = 20 per arm
[10] = Sub-study visit day 12, n = 20 per arm
[11] = Sub-study visit day 27, n = 20 Fidaxomicin, 17 Vancomycin

Structure (SMILES): CN[C@H](CC(C)C)C(=O)N[C@H]1C(=O)N[C@@H](CC(N)=O)C(=O)N[C@H]2C(=O)N[C@H]3C(=O)N[C@H](C(=O)N[C@H](C(=O)O)c4cc(O)cc(O)c4-c4cc3ccc4O)[C@H](O)c3ccc(c(Cl)c3)Oc3cc2cc(c3O[C@@H]2O[C@H](CO)[C@@H](O)[C@H](O)[C@H]2O[C@H]2C[C@](C)(N)[C@H](O)[C@H](C)O2)Oc2ccc(cc2Cl)[C@H]1O [vancomycin]
- % of patients with <3 Unformed bowel movements per day (UBM) ([1]; Day 1): 21.1%
- % of patients with ≥3 Unformed bowel movements per day (UBM) ([1]; Day 1): 78.9%
- % of patients with <3 Unformed bowel movements per day (UBM) ([1]; Day 2): 40.6%
- % of patients with ≥3 Unformed bowel movements per day (UBM) ([1]; Day 2): 59.4%
- % of patients with <3 Unformed bowel movements per day (UBM) ([1]; Day 3): 59.6%
- % of patients with ≥3 Unformed bowel movements per day (UBM) ([1]; Day 3): 40.4%
- % of patients with <3 Unformed bowel movements per day (UBM) ([1]; Day 4): 72.0%
- % of patients with ≥3 Unformed bowel movements per day (UBM) ([1]; Day 4): 28.0%
- % of patients with <3 Unformed bowel movements per day (UBM) ([1]; Day 5): 81.4%
- % of patients with ≥3 Unformed bowel movements per day (UBM) ([1]; Day 5): 18.6%
- % of patients with <3 Unformed bowel movements per day (UBM) ([1]; Day 6): 80.6%
- % of patients with ≥3 Unformed bowel movements per day (UBM) ([1]; Day 6): 19.4%
- % of patients with <3 Unformed bowel movements per day (UBM) ([1]; Day 7): 85.5%
- % of patients with ≥3 Unformed bowel movements per day (UBM) ([1]; Day 7): 14.5%
- % of patients with <3 Unformed bowel movements per day (UBM) ([1]; Day 8): 86.8%
- % of patients with ≥3 Unformed bowel movements per day (UBM) ([1]; Day 8): 13.2%
- % of patients with <3 Unformed bowel movements per day (UBM) ([1]; Day 9): 88.1%
- % of patients with ≥3 Unformed bowel movements per day (UBM) ([1]; Day 9): 11.9%
- % of patients with <3 Unformed bowel movements per day (UBM) ([1]; Day 10): 89.9%
- % of patients with ≥3 Unformed bowel movements per day (UBM) ([1]; Day 10): 10.1%
- % of patients with <3 Unformed bowel movements per day (UBM) ([1]; Day 11): 91.5%
- % of patients with ≥3 Unformed bowel movements per day (UBM) ([1]; Day 11): 8.5%
- % of patients with <3 Unformed bowel movements per day (UBM) ([1]; Day 12): 94.7%
- % of patients with ≥3 Unformed bowel movements per day (UBM) ([1]; Day 12): 5.3%
- % of patients with <3 Unformed bowel movements per day (UBM) ([1]; Day 13): 84.4%
- % of patients with ≥3 Unformed bowel movements per day (UBM) ([1]; Day 13): 15.6%
- Recurrence of CDI (%) at visit 5 (Day 55) [1, 6]: 16.1%
- Recurrence of CDI at visit 5 (Day 55) (patients/N) [1, 6]: 26/161
- Recurrence of CDI at visit 5 (Day 55) (patients/N) ([1]; Day 55, extended fidaxomicin or standard vancomycin, listed as VAN): 15/94
- Recurrence 30 days after end of treatment (%) [1, 7]: 16.1%
- Recurrence 30 days after end of treatment (patients/N) [1, 7]: 26/161
- Sustained clinical cure (%) at 30 days after end of treatment [1, 8]: 62.9%
- Sustained clinical cure at 30 days after end of treatment (patients/N) [1, 8]: 105/167
- Sustained clinical cure (%) at 30 days after end of treatment ([1]; extended fidaxomicin Day 55, standard vancomycin Day 40, listed as VAN): 62.9%
- CDI toxin in faecal stool samples, Negative (%) [2, 9]: (75%)
- CDI toxin in faecal stool samples, Negative (number of subjects) [2, 9]: 15
- CDI toxin in faecal stool samples, Positive (%) [2, 9]: (25.0%)
- CDI toxin in faecal stool samples, Positive (number of subjects) [2, 9]: 5
- CDI toxin in faecal stool samples, Negative (%) [2, 10]: (100.0%)
- CDI toxin in faecal stool samples, Negative (number of subjects) [2, 10]: 20
- CDI toxin in faecal stool samples, Positive (number of subjects) [2, 10]: 0
- CDI toxin in faecal stool samples, Negative (%) [2, 11]: (82.4%)
- CDI toxin in faecal stool samples, Negative (number of subjects) [2, 11]: 14
- CDI toxin in faecal stool samples, Positive (%) [2, 11]: (17.6%)
- CDI toxin in faecal stool samples, Positive (number of subjects) [2, 11]: 3
- Recurrence 30 days after end of treatment (%) [3]: 25.3%
- Recurrence 30 days after end of treatment (patients/N) [3]: 67/265
- Sustained clinical cure 30 days after end of treatment (patients/N) [3]: 198/309
- Recurrence 30 days after end of treatment (%) [4]: 26.9%
- Recurrence 30 days after end of treatment (patients/N) [4]: 60/223
- Sustained clinical cure 30 days after end of treatment (patients/N) [4]: 163/257
- Recurrence of CDI (CDI): 26%
- Average symptom-free interval (SFI) [5]: 37 days
